Results: patent publication US20070161611A1, “POLYCYCLIC PHENOLIC COMPOUNDS AND USE IN TREATING VIRAL INFECTIONS” (priority 2005, published 2007)
Like-named read-outs stand apart in the source and are kept apart here.

Tests used:
[1] = in vitro; conditions: human
[2] = system: HIV-1RF; test: Anti-HIV-1 activity in CEM-SS cells (inhibition of HIV-1 induced cytotoxicity); conditions: Human immunodeficiency virus 1, CEM-SS; for EC50: read-out: CEM-SS/HIV-1RF EC50
[3] = system: BVDV-NADL; test: Protection of MDBK cells from BVDV-induced cytopathicity (MTS/PMS CPE reduction assay); type: cell-based; conditions: Bovine viral diarrhea virus isolates and strains
Description: Cell proliferation was monitored using a non-radioactive MTS/PMS assay (MTS: 3-(4,5-dimethylthiazol-2-yl)-5-(3-carboxymethoxy phenyl)-2-(4-sulfophenyl)-2H-tetrazolium (Promega, Madison, Wis.)); (PMS: phenazine methosulfate (Sigma Aldrich, St. Louis, Mo.)). MDBK cells were seeded into 96-well plates at a density of approximately 2×10^4 cells per well. The cultures were incubated 3-24 hours to permit attachment of the cells to the plates prior to infection and addition of compounds. The appropriate PFU of BVDV-NADL were added to each well to achieve the desired MOI (<1 or >0.001); the cells were exposed to the virus diluted at the appropriate concentration in phosphate buffered saline (PBS) containing 1% horse serum (HS) for 1 to 2 hours. The virus was then removed and the cells were washed with PBS containing 1% HS. The test compounds were serially diluted in cell growth media with 2% HS and added to the cells. The plates were incubated at 37° C. in the presence of 5% CO2 for 3-4 days. Uninfected cells and infected, untreated cells (without compound) were used as additional controls. The final volume was 100 μl per well. After the 3-4 days of incubation a volume of 20 μL of the combined MTS/PMS solution was added into each well of the 96-well assay plate containing 100 μL of cells in culture medium to obtain final concentrations of 333 μg/ml MTS 5 and 25 μM PMS. A 96-well microtiter spectrophotometer plate reader was used to measure the absorbance at 490 nm after incubation of the 96-well plate for 1 to 4 hours at 37° C. in a humidified, 5% CO2 atmosphere. The mean absorbance in each set of triplicate wells was determined. Antiviral activity was measured as MTS conversion relative to the differential between the conversion for cell (non-infected) and viral (non-drug-treated) controls. The cytopathic effect (CPE) reduction for each concentration of the tested compound, which correlated with antiviral activity, was calculated as follows. % CPE reduction=[(D−ND)/(NI−ND)]×100, where D (drug-treated)=the absorbance of drug-treated cells; ND (non drug-treated)=the absorbance of untreated infected cells; and NI (non-infected)=the absorbance of non-infected cells. EC50 represents the concentration of drug that protects 50% of the cells from BVDV induced cytotoxicity (50% CPE reduction). CC50 equals the concentration that affects the viability of 50% of the MDBK cells.
The compounds were combined at fixed molar ratios and serially diluted 2-fold in cell growth medium to examine a range of 6 fixed ratio combinations including those having about an equipotent antiviral dose to a combination in which one test compound was used at a sub-optimal level (e.g., sub-therapeutic).

[4] = Cytotoxicity in uninfected MDBK cells after 24 h treatment (OD490); type: cell-based, bovine; conditions: bovine, compared to control, read-out: % Cytotoxicity of Compound 20 (1 μM)
Description: (§1) Madin-Darby Bovine Kidney Cells (MDBK) (American Type Culture Collection (ATCC) No. CCL-22, Manassas, Va) were seeded into 96-well plates at a density of approximately 2×10^4 cells per well. The cell cultures were incubated for 3-24 hours to allow for attachment of cells to the culture plates prior to infection and addition of compounds. BVDV strain NADL (ATCC No. VR-534) plaque forming units (PFU) were added to each well to achieve a multiplicity of infection (MOI) ranging from about 1 or about 0.001, and allowed to remain in contact with the cultured cells for 1 to 2 hours. The virus was then removed and the cells were washed with growth medium (e.g., Dulbecco's Modified Eagles Medium (DMEM)) containing 5% horse serum (HS), or with phosphate buffered saline (PBS), 1% HS, and 1 mM MgCl2. The test compounds, dissolved in cell growth media with 2% HS, were then added to the BVDV-infected cells or uninfected cells (cytotoxicity determination) at various concentrations. The plates were incubated at 37° C., 5% CO2 for 24 hours (i.e., about one cycle of BVDV replication). The plates were then centrifuged at low speed and the supernatant was serially diluted for use in infecting a new monolayer of cells in 12-well plates. […] The virus plaques formed in MDBK cell cultures were quantified by a manual count and a titer was determined.

[5] = system: MDBK cells; test: as above; type: cell-based, bovine; conditions: untreated control OD490 1.2
Description: as §1

[6] = in vitro; type: cell-based; conditions: bovine
Description: Cell proliferation was monitored using a non-radioactive MTS/PMS assay (MTS: 3-(4,5-dimethylthiazol-2-yl)-5-(3-carboxymethoxy phenyl)-2-(4-sulfophenyl)-2H-tetrazolium (Promega, Madison, Wis.)); (PMS: phenazine methosulfate (Sigma Aldrich, St. Louis, Mo.)). MDBK cells were seeded into 96-well plates at a density of approximately 2×10^4 cells per well. The cultures were incubated 3-24 hours to permit attachment of the cells to the plates prior to infection and addition of compounds. […] A 96-well microtiter spectrophotometer plate reader was used to measure the absorbance at 490 nm after incubation of the 96-well plate for 1 to 4 hours at 37° C. in a humidified, 5% CO2 atmosphere. The mean absorbance in each set of triplicate wells was determined. Antiviral activity was measured as MTS conversion relative to the differential between the conversion for cell (non-infected) and viral (non-drug-treated) controls. The cytopathic effect (CPE) reduction for each concentration of the tested compound, which correlated with antiviral activity, was calculated as follows. % CPE reduction=[(D−ND)/(NI−ND)]×100, where D (drug-treated)=the absorbance of drug-treated cells; ND (non drug-treated)=the absorbance of untreated infected cells; and NI (non-infected)=the absorbance of non-infected cells. […]

[7] = Toxicity in AVA5 replicon cells (neutral red dye uptake); conditions: human, AVA5 cells (HCV RNA-replicating, Huh7-derived)
Description: The antiviral activity of test compounds were assayed in the stably HCV RNA-replicating cell line, AVA5, derived by transfection of the human hepatoblastoma cell line, Huh7 (Blight, et al., 2000, Science 290: 1972). […] Intracellular HCV RNA levels and cytotoxicity were assessed 24 hours after the last dose of compound.
Assays were conducted using 4-5 doses of test compound. […] HCV RNA levels were assessed 24 hours after the last dose of compound using a dot blot hybridization assay. Both HCV and β-actin RNA levels in triplicate treated cultures were expressed as a percentage of the mean levels of RNA detected in untreated cultures (6 total). β-Actin RNA levels were used both as a measure of toxicity, and to normalize the amount of cellular RNA in each sample. Toxicity analyses were performed on separate plates from those used for the antiviral assays. Cells for the toxicity analyses were cultured and treated with test compounds with the same schedule and under identical culture conditions as used for the antiviral evaluations. Uptake of neutral red dye was used to determine the relative level of toxicity 24 hours following the last treatment. The absorbance of internalized dye at 510 nm (A510) was used for the quantitative analysis. Values in test cultures were compared to 9 cultures of untreated cells maintained on the same plate as the test cultures.

[8] = system: non-cytopathic BVDV Pe515; test: Non-cytopathic BVDV genomic RNA reduction in MDBK cells (qRT-PCR); type: cell-based; conditions: Bovine viral diarrhea virus isolates and strains, 72 h, MOI 0.001, three day treatment, FIG. 1, read-out: EC50 of ncp BVDV genomic replication
Description: MDBK cells were seeded into 6-or 96-well plates at a density of approximately 2×10^4 cells per well. The cultures were incubated 3-24 hours to permit attachment of the cells to the plates prior to infection and addition of compounds. The appropriate number of non-cytopathic BVDV Pe515 (ncp BVDV) PFU were added to each well to achieve the desired MOI (0.001); the cells were contacted with the virus diluted at the appropriate concentration in PBS containing 1% HS and 1 mM MgCl2 for 1 to 2 hours. The test compounds dissolved in cell growth media with 2% HS were added to the cells at varying concentrations. The plates were incubated at 37° C. in the presence of 5% CO2 for 3-4 days. […] Real-time quantitation was done using the Quantitative One Step Reverse Transcriptase (RT) Polymerase Chain Reaction (qRT-PCR) MasterMix Plus for SYBR® Green I (Eurogentec, San Diego, calif.). […] The following primers were used for the one step RT-PCR SYBR quantitation assay: forward primer 5′-[…]-3′ (SEQ ID NO:1) and reverse primer 5′-[…]-3′ (SEQ ID NO:2). […] Well-to-well variations in background fluorescence were corrected for by use of a ROX-labeled passive reference, included as part of the Eurogentec One Step qRT-PCR Master Mix for each sample. Amplification curves were analyzed by using empirically established cycle threshold and baseline settings for the assay. […]

[9] = system: HCV sub-genomic replicon genotype 1b; test: HCV sub-genomic replicon assay in AVA5 cells (HCV RNA dot blot hybridization); type: cell-based, Hepatitis C Virus; conditions: for SI (Selectivity Index): HCV replicon genotype 1b; for EC50: Hepatitis C virus, AVA5 cells, once daily for three days, HCV RNA 24 h after last dose
[10] = system: BVDV strain NADL; test: Inhibition of viral release in BVDV-infected MDBK cells (plaque titration of supernatant); type: cell-based, Bovine Viral Diarrhea virus; conditions: 24 h treatment
Description: as §1

[11] = system: CEM-SS cells; test: Cytotoxicity in CEM-SS cells; conditions: at 300 μM
[12] = MOI of 0.01, monotherapy run in parallel to combination studies, read-out: EC50 (monotherapy)
[13] = MOI = 0.05, 3-4 days, read-out: EC50

| SMILES | CC50 [1] | EC50 [2] | EC50 [3, 12] | CC50 at 3 days [7] | SI (Selectivity Index) [9] | EC50 [9] | also measured |
| --- | --- | --- | --- | --- | --- | --- | --- |
| CO/N=C1\CC[C@H]2[C@@H]3CCc4cc(O)c(C56CC7CC(CC(C7)C5)C6)cc4[C@H]3CC[C@]12C [Compound 5] | 17.3 µM | 5.8 µM |  |  |  |  |  |
| CCCC(=O)O[C@H]1CN2CC[C@H](O)[C@@H]2[C@@H](O)[C@@H]1O [Celgosivir, [1S-(1α,6β,7α,8β,8αβ)]-octahydro-1,6,7,8-indolizinetetrol 6-butanoate, reference compound] |  |  | 2.2 µM |  |  |  |  |
| C[C@@]1(O)[C@H](O)[C@@H](CO)O[C@H]1n1ccc(N)nc1=O [NM107, 2′-C-methyl cytidine, reference compound] |  |  | 0.99 µM |  |  |  |  |
| C[C@]12CC[C@@H]3c4cc(C56CC7CC(CC(C7)C5)C6)c(O)cc4CC[C@H]3[C@@H]1CC[C@@H]2O [Compound 20, 17(β)-2-(1-adamantyl)-estra-1,3,5(10)-triene-3,17-diol] | 14.3 µM | 8.6 µM |  | 8.1 µM | 188 | 0.043 µM | EC50 ([3]; MOI 0.01, read-out: EC50): 0.34 ± 0.02 µM; EC50 ([3]; MOI 0.02, read-out: EC50): 0.51 µM; EC50 ([3]; MOI 0.03, read-out: EC50): 0.46 µM; EC50 [3, 13]: 0.8 ± 0.22 µM; cytotoxicity at 24 h, 1 µM [4]: 0%; OD490 - 1 μM Compound 20 [5]: 1.2; CC50 [6]: 40.1 ± 25.1 µM; EC50 [8]: ~0.15 µM; Viral titer in presence of 1 μM of Compound 20 ([10]; untreated control 7.0 × 10^5 PFU/mL): 2.2 × 10^5 PFU/mL; inhibition at 1 µM ([10]; Bovine viral diarrhea virus isolates and strains, MDBK, compared to control, read-out: % Inhibition of Viral Release by Compound 20 at 1 μM): 69% |
| C[C@]12CCC3c4cc(C56CC7CC(CC(C7)C5)C6)c(O)cc4CCC3C1CCC2=O (stereo partly shown) [Compound 2] | > 100 µM | 19.7 µM | 0.23 µM |  |  |  |  |
| C[C@]12CC[C@@H]3c4ccc(OS(=O)(=O)O)cc4CC[C@H]3[C@@H]1CC[C@H]2O [Compound 16, 17(α)-estradiol-3-sulfate sodium] |  | > 300 µM |  | > 100 µM | >196 | 0.51 µM | CC50 ([1]; CEM-SS cells): > 300 µM; inhibition at 300 µM ([2]; read-out: inhibition of HIV-1 induced cytotoxicity in CEM-SS cells): 20%; cytotoxicity shown by the compound [11]: no cytotoxicity |
| C[C@]12CC[C@@H]3c4cc(C56CC7CC(CC(C7)C5)C6)c(O)cc4CC[C@H]3[C@@H]1CC/C2=N\N [Compound 4] |  |  |  | 24 µM | 353 | 0.068 µM | EC50 [3, 13]: 3.99 ± 0.99 µM; CC50 [6]: 34.5 ± 23.2 µM |
